Data from patent US20040147532A1, “Liquid conjugates of solid pharmaceuticals” (Pfizer Inc, priority 2002, published 2004).
Values after ≈ are worked out from the molar mass of the structure shown. Where a name gives a salt, the structure may show the parent alone.

Experiment: Solubility of ziprasidone from conjugates in phosphate buffered saline (HPLC)
Type: physicochemical
Conditions: PBS, continuous agitation; for Solubility of ziprasidone, Sample Conc., 20 min: time point 20 min; for Solubility of ziprasidone, Sample Conc., 7 days: time point 7 days
Description: For the solubility determination, all conjugate samples were placed in Eppendorf tubes with 1-ml aliquot of phosphate buffered saline (PBS), pH adjusted to 7.4. At selected time points (20 minutes, 1 hour, 6 hours, 24 hours, and 7 days), 200 µl of PBS exposed to each sample was withdrawn and replaced with fresh medium. The samples were continuously agitated for the duration of the study. To prepare HPLC samples, the 200-μl samples were filtered through 0.22-μm syringe, filter membrane, diluted as needed, and injected at appropriately adjusted volume to determine ziprasidone concentration in solution.

SMILES	Solubility of ziprasidone, Sample Conc., 20 min (pH 7.4) [µg/mL]	Solubility of ziprasidone, Sample Conc., 6 hours (pH 7.4, time point 6 hours) [µg/mL]	Solubility of ziprasidone, Sample Conc., 7 days (pH 7.4) [µg/mL]	solubility at 24 h (phosphate buffered saline, pH 7.4, aqueous buffer, thermodynamic from solid, time point 24 hours, read-out: Solubility of ziprasidone, Sample Conc., 24 hours) [µg/mL]
O=C1Cc2cc(CCN3CCN(c4nsc5ccccc45)CC3)c(Cl)cc2N1 [Ziprasidone Free Base, 5-[2-[4-(1,2-benzisothiazol-3-yl)-1-piperazinyl]ethyl]-6-chloro-1,3-dihydro-2H-indol-2-one]	0.01	0.22	0.01	2 (≈ 4.84 µM)
O=C1Cc2cc(CCN3CCN(c4nsc5ccccc45)CC3)c(Cl)cc2N1 [Ziprasidone Mesylate]	1.46	–	1.31	–
